For 15 molecules, TGI and GI50 results are on record in PubChem BioAssay (NCI).

Assay in all cases: NCI tumour cell line growth inhibition, 48 h
Assay [1] concerns MDA-MB-231 breast.
In assay [2] the test system is DU-145 prostate.
For assay [3], the system named is RXF 393 renal.
Assay [4] deals with MOLT-4 leukemia.
The subject of assay [5] is T-47D breast.
In assay [6] the test system is A549 NSCLC.
For assay [7], the system named is HT29 colon.
Assay [8] has as its system SR leukemia.
The test system of assay [9] is 786-0 renal.
The subject of assay [10] is SNB-75 CNS.

Each structure is given as a SMILES string.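 These data come from cells grown in 96-well plates and exposed to compound for 48 hours at five concentrations. GI50 is the concentration that inhibits growth by half. TGI: total growth inhibition.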 Where only a bound is given, the exact number is not on record here.

As for `Cc1ccc(NC(=O)CCc2nnc3s/c(=C\C=C\c4ccccc4)c(=O)n23)cc1`, the TGI in [1] was above 100 µM; in assay [2], above 100 µM; in assay [3] it was above 100 µM; in assay [4], 79.8 µM; in assay [5] it was above 31.6 µM; in assay [6], above 100 µM. Besides, the TGI in [7] is above 100 µM; in assay [8] it was 65.6 µM; in assay [9], above 100 µM; in assay [10] it was above 100 µM.

As to `O=C(Nc1ccc(Cl)cc1)c1cc(NCc2cc(O)ccc2O)ccc1O`, the GI50 is 3.49 µM in assay [1]; 13.2 µM in [2]; 2.24 µM in assay [3]; 3.28 µM in assay [4]; 2.05 µM in assay [5]; 18.4 µM in [6]. The GI50 is 22.2 µM in assay [7], 3.84 µM in assay [8], 6.17 µM in [9] and 1.99 µM in [10]. Moreover, the TGI in [1] stood at 13.6 µM; in [2], 26.9 µM; in assay [3], 5.31 µM; in assay [4] it was 32.9 µM; in assay [5], 5.24 µM; in assay [6] it was 44 µM. For the same molecule, the TGI in [7] was 58.5 µM; in assay [8] it was above 100 µM; in assay [9] it was 19.6 µM; in [10], 8.99 µM.

As for `CCOc1ccc(Nc2ccnc3cc(Cl)ccc23)cc1`, the GI50 in assay [1] is above 100 µM; in assay [2] it was above 100 µM; in assay [3], 72.3 µM; in assay [4], above 100 µM; in [5] it was above 100 µM; in assay [6], above 100 µM. Further, the GI50 in [7] is 3.88 µM; in assay [8] it was 14.7 µM; in [9], 41.1 µM; in assay [10] it was 17 µM. Further, the TGI in assay [1], in [2], in assay [3], in [4], in [5] and in assay [6] was above 100 µM each time. For the same molecule, the TGI is above 100 µM in assay [7], above 100 µM in assay [8], above 100 µM in assay [9] and 51.2 µM in assay [10].

For the molecule `O=c1cc(-c2ccccc2)oc2c(O)c(O)ccc12`, the GI50 in assay [1] is 23.2 µM; in assay [2] it was 8.66 µM; in assay [3], 9.95 µM; in [4], 5.09 µM; in [5], 16.9 µM; in [6], 7.22 µM. In addition, the GI50 in assay [7] is 35.4 µM; in assay [8] it was 3.35 µM; in [9], 5.99 µM; in [10] it was 28.7 µM. Moreover, the TGI in assay [1] is above 100 µM; in assay [2], above 100 µM; in [3], 52.7 µM; in [4], above 100 µM; in assay [5], above 100 µM; in assay [6], 91.5 µM. For the same molecule, the TGI was above 100 µM in [7], above 100 µM in assay [8], 75.1 µM in [9] and above 100 µM in [10].

Turning to `N#Cc1ccc2[nH]cc(Cc3c[nH]c4ccc(C#N)cc34)c2c1`, the GI50 was 10.3 µM in [1]; 16.3 µM in assay [2]; 10.7 µM in assay [3]; 7.53 µM in assay [4]; 10.6 µM in assay [5]; 9.73 µM in assay [6]. For the same molecule, the GI50 in [7] was 18.4 µM; in assay [8] it was 7.99 µM; in assay [9] it was 13.4 µM; in assay [10], 20.4 µM. The TGI was 25.1 µM in assay [1]; above 50 µM in assay [2]; 34.9 µM in [3]; 19.5 µM in assay [4]; 32.8 µM in [5]; 24 µM in assay [6]. Also, the TGI is above 50 µM in [7], 36.7 µM in [8], 38 µM in assay [9] and above 50 µM in [10].

As to `NC(CCl)=NCC12CC3CC(CC(C3)C1)C2`, the GI50 was 1.75 µM in [1]; 0.608 µM in assay [2]; 0.44 µM in assay [3]; 0.333 µM in [4]; 1.2 µM in assay [5]; 0.792 µM in assay [6]. Moreover, the GI50 was 0.458 µM in assay [7], 0.116 µM in assay [8], 0.966 µM in assay [9] and 2.21 µM in assay [10]. Further, the TGI in assay [1] was 11.3 µM; in assay [2], 3.75 µM; in assay [3] it was 5.4 µM; in assay [4], 1.73 µM; in [5], 20.1 µM; in assay [6], 15.7 µM. Besides, the TGI in assay [7] is 2.93 µM; in [8] it was 0.706 µM; in [9], 13.2 µM; in assay [10], 15.4 µM.

Take `O=C(N/N=C/c1ccc([N+](=O)[O-])cc1)c1ccccc1Nc1ccnc(C(F)(F)F)c1`: the GI50 in [1] is 21.7 µM; in [2] it was 11.9 µM; in assay [3], 15.4 µM; in assay [4], 5.33 µM; in assay [5], 21.6 µM; in [6], 15.4 µM. Also, the GI50 was 30.7 µM in [7], 1.5 µM in assay [8], 32.7 µM in assay [9] and 18.2 µM in [10]. For the same molecule, the TGI turned out to be 77.1 µM in assay [1]; 45.5 µM in assay [2]; 42.8 µM in assay [3]; 40.5 µM in assay [4]; 82.4 µM in assay [5]; 66 µM in assay [6]. Besides, the TGI was above 100 µM in [7], 20.2 µM in assay [8], above 100 µM in [9] and 70.3 µM in assay [10].

Turning to `CCC(CO)Nc1nc(NCc2ccccc2)c2n[nH]c(C(C)C)c2n1` (configuration not stated), the GI50 in [1] was 15.8 µM; in assay [2], 3.73 µM; in assay [3], 5.89 µM; in assay [4], 11.1 µM; in [5], 16 µM; in assay [6], 12 µM. The GI50 in [7] is 3.88 µM; in assay [8], 3.24 µM; in assay [9] it was 6.68 µM; in assay [10] it was 11.4 µM. Moreover, the TGI was 35.3 µM in assay [1]; 16.6 µM in assay [2]; 21 µM in assay [3]; 46.3 µM in [4]; 41.2 µM in [5]; 46.4 µM in [6]. For the same molecule, the TGI in assay [7] was 27.8 µM; in [8], 10.6 µM; in assay [9], 21.5 µM; in [10] it was 25.4 µM.

Turning to `[Mn+3].[O-][Cl+3]([O-])([O-])O.[O-]c1ccccc1C=NCCN1CC1.[O-]c1ccccc1C=NCCN1CC1`, the GI50 in assay [1] was 20.9 µM; in assay [2] it was 22.7 µM; in assay [3] it was 63 µM; in assay [4], 5.57 µM; in [5] it was 20.3 µM; in [6], 38.6 µM. Moreover, the GI50 is 20.2 µM in [7], 18.4 µM in assay [8], 27.2 µM in assay [9] and 25.6 µM in assay [10]. Moreover, the TGI in [1] is above 100 µM; in [2], above 100 µM; in assay [3], above 100 µM; in assay [4], 25.4 µM; in [5], above 100 µM; in assay [6], above 100 µM. The TGI in assay [7] is 44.1 µM; in assay [8], 39.4 µM; in [9], above 100 µM; in assay [10], 70.1 µM.

`C#Cc1cccc(Nc2nc(C)nc3cc(NC(=O)CCl)ccc23)c1`: the GI50 is 0.886 µM in assay [1]; 3.67 µM in assay [2]; 3.28 µM in [3]; 0.719 µM in assay [4]; 3.17 µM in [5]; 4.68 µM in assay [6]. Besides, the GI50 in assay [7] is 1.06 µM; in assay [8], 0.561 µM; in assay [9] it was 0.461 µM; in [10] it was 1.09 µM. The TGI in [1] came to 3.92 µM; in assay [2], 7.08 µM; in assay [3], 6.86 µM; in [4], 2.27 µM; in [5] it was 7.69 µM; in [6], 8.66 µM. Also, the TGI in assay [7] was found to be 4.15 µM; in [8], 2.24 µM; in [9] it was 1.03 µM; in assay [10], 4.34 µM.

Turning to `O=C1NN(C(=O)c2ccccc2)C(c2ccc(Cl)c(Cl)c2)=C/C1=C\c1ccccc1[N+](=O)[O-]`, the GI50 was above 6.75 µM in [1]; 2.78 µM in [2]; 1.67 µM in [3]; 2.04 µM in [4]; 2.25 µM in assay [5]; 2.11 µM in assay [6]. Also, the GI50 in assay [7] is 2.3 µM; in [8], 2.07 µM; in assay [9] it was 2.2 µM; in assay [10], 1.27 µM. Also, the TGI in assay [1] was above 6.75 µM; in assay [2], above 6.75 µM; in assay [3] it was 5.35 µM; in assay [4], above 6.75 µM; in [5], above 6.75 µM; in [6], above 6.75 µM. The TGI in [7], in assay [8], in assay [9] and in assay [10] was above 6.75 µM in each case.

Consider `CCCCNC(=O)Oc1ccc(/C(=C(\C)c2ccc(OC)cc2)c2ccc(OCCN3CCCCC3)cc2)cc1`, for which the GI50 in assay [1] is 2.08 µM; in assay [2], 6.5 µM; in assay [3], 2.09 µM; in [4] it was 3.12 µM; in assay [5], 1.24 µM; in assay [6], 4.15 µM. The GI50 was 0.873 µM in assay [7], 1.59 µM in assay [8], 1.47 µM in [9] and 6.91 µM in assay [10]. Further, the TGI is 3.83 µM in assay [1]; 21.4 µM in [2]; 4.3 µM in assay [3]; 71.9 µM in assay [4]; 6.37 µM in [5]; 16 µM in [6]. Moreover, the TGI in assay [7] turned out to be 6.77 µM; in [8], 4.63 µM; in assay [9] it was 2.83 µM; in assay [10], 25 µM.

With `Cn1cnc(SC2=CC(=O)C=C3S[C@H]4C[C@@]23c2c(c(O)c3c5c2=NCCC=5C=N3)N4)c1CC(N)C(=O)O` (some centres not stated), the GI50 in [1] was 6.6 µM; in [3], 10.6 µM; in assay [4], 2.99 µM; in assay [5] it was 20.2 µM; in [7] it was 2.18 µM; in assay [8] it was 20.9 µM. In assay [9], the GI50 is 13.6 µM. The TGI worked out at 20.3 µM in assay [1]; 32 µM in assay [2]; 23.8 µM in assay [3]; 8.98 µM in assay [4]; 38.3 µM in assay [5]; 30.2 µM in assay [6]. In addition, the TGI in assay [7] was determined as 11.7 µM; in assay [8] it was 98.9 µM; in [9] it was 26.8 µM; in assay [10] it was 34.5 µM.

Turning to `O=C(O)c1nn(-c2ccc(Cl)cc2)c2c1C(=O)c1ccccc1C2=O`, the TGI in assay [1] is above 100 µM; in assay [2] it was above 100 µM; in assay [3], above 100 µM; in assay [4], 88 µM; in assay [5] it was above 100 µM; in assay [6], above 100 µM. Moreover, the TGI in [7] is above 100 µM; in assay [8], 78.7 µM; in assay [9] it was above 100 µM; in [10], 62.3 µM.

For the molecule `Cn1cc(-c2ncnc3ccc(-c4cnc(Cl)c(NS(C)(=O)=O)c4)cc23)c2ccccc21`, the GI50 in assay [1] is 1.84 µM; in [2], 1.05 µM; in assay [3], 0.435 µM; in [4], 0.491 µM; in [5], 0.0944 µM; in assay [6], 0.814 µM. In addition, the GI50 is 0.541 µM in assay [7], 1.24 µM in assay [8], 1.44 µM in assay [9] and 0.127 µM in assay [10]. Besides, the TGI is 26.4 µM in assay [1]; above 100 µM in [2]; 4.05 µM in assay [3]; 4.89 µM in assay [4]; 0.691 µM in [5]; 9.41 µM in [6]. Further, the TGI in assay [7] is above 100 µM; in assay [8], above 35.9 µM; in [9], above 100 µM; in assay [10], 1.98 µM.
